Measured values taken from US20070232563A1, “Method for Enhancing Biological Activity and/or Expanding Suitable Region for Biological Activity of Living Body Contacting with Aqueous Environment” (Kabushiki Kaisha Hayashibara Seibutsu Kagaku Kenky, priority 2004, published 2007).

How the values were obtained:
[1] = test system: short-necked clam (Ruditapes philippinarum); assay: Biological activity of short-necked clam (aqueduct extension score) in aqueous mineral solutions; format: in vivo; settings: saccharide 1 w/v %, total of 18 clams, 16 h
Procedure: Suitable region for biological activity of short-necked clam (Ruditapes philippinarum), as a fish or shellfish living in seawater, was examined by adding various saccharides to mineral aqueous solutions with various concentrations. In detail, solar salt (85% by weight of sodium chloride and 15% by weight of magnesium) as minerals was dissolved in running water kept in a container for two days to give final concentrations described in the following Table 1. Saccharide (any one of D-glucose, maltose, sucrose, maltitol, α,α-trehalose, α-maltosyl α,α-trehalose, maltotetraose and cyclic tetrasaccharide) was dissolved in the resulting salt solutions to give a final concentration of 1 w/v %, on a dry solid basis. Each of the resulting solutions was placed in a plastic bat. Eighteen pre-selected active short-necked clam in one group were placed in the bat. The bat was shaded with a black cloth and left at ambient temperature (18° C.) for 16 hours. As a control, an aqueous solar salt solution without any saccharides was prepared. Saccharides except for α-maltosyl α,α-trehalose as a saccharide derivatives thereof and cyclic tetrasaccharide were chosen from commercialized products. α-Maltosyl α,α-trehalose as saccharide derivatives of α,α-trehalose in a powder form with a purity of 98 w/w % or over was prepared by the method disclosed in Experiment 4 in Japanese Patent Kokai No. 143876/1995. Cyclic tetrasaccharide in a crystalline form with a purity of 98 w/w % or over, on a dry solid basis, was prepared by the method disclosed in Example A-7 in International Patent Publication No. WO02/10361. Influence of various saccharides was judged by observing the degree of extending aqueduct of the shellfish; 3 points: its aqueduct is well extended; 2 points: its aqueduct is slightly extended; 1 point: its aqueduct is not extended but its shells are opened; 0 point: its shells are closed. The effect on biological activity was judged by the total point of 18 shellfishes. To investigate the effective concentration range of α,α-trehalose or α-maltosyl α,α-trehalose against a mineral solution with a concentration of 1.5 w/v % or 4.5 w/v %, where α,α-trehalose or α-maltosyl α,α-trehalose was remarkably effective in Experiment 1, the following experiment using α,α-trehalose or α-maltosyl α,α-trehalose at a concentration of 0.01, 0.1, 1, 2, 3 or 4 w/v % was carried out according to the method in Experiment 1. As a control, mineral aqueous solutions with a concentration of 1.5 w/v % or 4.5 w/v % without any of the saccharides were prepared and carried out in the same manner.

[2] = test system: colbicula (Corbicula leana); assay: Biological activity of corbicula (aqueduct extension score) in aqueous mineral solutions; format: in vivo; settings: saccharide 1 w/v %, total of 18 shellfishes, 16 h
Description: Influence of various saccharides was judged by observing the degree of extending aqueduct of the shellfish; 3 points: its aqueduct is well extended; 2 points: its aqueduct is slightly extended; 1 point: its aqueduct is not extended but its shells are opened; 0 point: its shells are closed. The effect on biological activity was judged by the total point of 18 shellfishes.
Suitable region for biological activity was examined by using colbicula (Corbicula leana) as fishes and shellfishes living in fresh water in the case of enhancing their biological activity by using aqueous mineral solutions containing various saccharides. In detail, solar salt (85% by weight of sodium chloride and 15% by weight of magnesium) as minerals was dissolved in tap water kept in a container for two days to give final concentrations described in the following Table 4. Saccharide (any one of D-glucose, maltose, sucrose, maltitol, α,α-trehalose, α-maltosyl α,α-trehalose, maltotetraose and cyclic tetrasaccharide) was dissolved in the resulting salt solutions to give a final concentration of 1 w/v %, on a dry solid basis. The resulting each solution was placed in a plastic bat. Eighteen pre-selected active shellfishes in one group were placed in the bat. The bat was shaded with a black cloth and left at ambient temperature (18° C.) for 16 hours. As a control, an aqueous solar salt solution without saccharides was prepared. Biological activity of the shellfish was judged by measuring extend their aqueducts macroscopically in the same manner as in Experiment 1.
Effective concentration range of α,α-trehalose or α-maltosyl α,α-trehalose on enhancing biological activity and/or influencing on suitable region for biological activity of colbicula (Corbicula leana) was determined according to the method of Experiment 4 by examining biological activity of the shellfish in the aqueous mineral solution with a mineral concentration of 1.5 w/v %, where α,α-trehalose or α-maltosyl α,α-trehalose was effective in Experiment 4, containing α,α-trehalose or α-maltosyl α,α-trehalose at a concentration of 0.01, 0.1, 1, 2, 3 or 4 w/v %, on a dry solid basis. As a control, a solution containing 1.5 w/v % of mineral without such saccharides was prepared and treated in the same manner.

| Compound | Judgment score for biological activity ([1]; mineral 0 w/v %) | Judgment score for biological activity ([1]; mineral 0.5 w/v %) | Judgment score for biological activity ([1]; mineral 1.0 w/v %) | Judgment score for biological activity ([1]; mineral 1.5 w/v %) | Judgment score for biological activity ([1]; mineral 2.0 w/v %) | Judgment score for biological activity ([1]; mineral 2.5 w/v %) | Judgment score for biological activity ([1]; mineral 3.0 w/v %) | Judgment score for biological activity ([1]; mineral 3.5 w/v %) | Judgment score for biological activity ([1]; mineral 4.0 w/v %) | Judgment score for biological activity ([1]; mineral 4.5 w/v %) | Judgment score for biological activity ([1]; mineral 5.0 w/v %) | Judgment score for biological activity ([1]; mineral 5.5 w/v %) | Judgment score for biological activity ([1]; mineral 6.0 w/v %) | Judgment score of biological activity ([2]; mineral concentration 0) | Judgment score of biological activity ([2]; mineral concentration 0.5) | Judgment score of biological activity ([2]; mineral concentration 1.0) | Judgment score of biological activity ([2]; mineral concentration 1.5) | Judgment score of biological activity ([2]; mineral concentration 2.0) | Judgment score of biological activity ([2]; mineral concentration 2.5) | Judgment score of biological activity ([2]; mineral concentration 3.0) |
| --- | --- | --- | --- | --- | --- | --- | --- | --- | --- | --- | --- | --- | --- | --- | --- | --- | --- | --- | --- | --- |
| OC[C@H]1O[C@H](O[C@H]2[C@H](O)[C@@H](O)C(O)O[C@@H]2CO)[C@H](O)[C@@H](O)[C@@H]1O (mixture of isomers) [Maltose, maltose] | 4 | 12 | 14 | 15 | 32 | 44 | 48 | 42 | 32 | 25 | 8 | 3 | 0 | 51 | 49 | 18 | 15 | 14 | 9 | 0 |
| OC[C@H]1O[C@@H]2OC[C@H]3O[C@H](O[C@@H]4[C@@H](O)[C@@H](OC[C@H]5O[C@H](O[C@H]([C@H]2O)[C@@H]1O)[C@H](O)[C@@H](O)[C@@H]5O)O[C@H](CO)[C@H]4O)[C@H](O)[C@@H](O)[C@@H]3O [Cyclic tetrasaccharide, cyclic tetrasaccharide] | 6 | 10 | 15 | 16 | 30 | 43 | 49 | 41 | 30 | 17 | 11 | 0 | 0 | 51 | 50 | 29 | 16 | 13 | 12 | 1 |
| O=C[C@H](O)[C@@H](O)[C@H](O)[C@H](O)CO [D-Glucose, D-glucose] | 7 | 12 | 12 | 14 | 30 | 41 | 48 | 44 | 31 | 24 | 11 | 4 | 0 | 50 | 51 | 25 | 18 | 15 | 5 | 0 |
| OC[C@@H](O)[C@@H](O[C@H]1O[C@H](CO)[C@@H](O)[C@H](O)[C@H]1O)[C@H](O)[C@@H](O)CO [Maltitol, maltitol] | 8 | 11 | 15 | 20 | 30 | 41 | 48 | 47 | 32 | 16 | 12 | 5 | 0 | 50 | 47 | 25 | 18 | 13 | 2 | 0 |
| OC[C@H]1O[C@H](O[C@H]2[C@H](O)[C@@H](O)[C@@H](O[C@H]3[C@H](O)[C@@H](O)[C@@H](O[C@H]4[C@H](O)[C@@H](O)C(O)O[C@@H]4CO)O[C@@H]3CO)O[C@@H]2CO)[C@H](O)[C@@H](O)[C@@H]1O (stereo partly drawn) [Maltotetraose, maltotetraose] | 7 | 11 | 12 | 16 | 28 | 45 | 46 | 42 | 31 | 26 | 14 | 5 | 0 | 51 | 49 | 19 | 14 | 11 | 9 | 0 |
| OC[C@H]1O[C@@](CO)(O[C@H]2O[C@H](CO)[C@@H](O)[C@H](O)[C@H]2O)[C@@H](O)[C@@H]1O [Sucrose, sucrose] | 7 | 11 | 14 | 16 | 31 | 44 | 48 | 45 | 30 | 21 | 9 | 0 | 0 | 51 | 46 | 21 | 11 | 8 | 7 | 0 |
